Source: patent publication US11420970B1 (NOVARTIS AG, priority 2019, dated 2022)
pIC50: −log10 of the molar value. Where two headings read alike, the source gives them in different places.

Tests used:
NSD2 [1-1365] = NSD2 [1-1365] (Homo sapiens (Human), UniProt O96028); test: LC-MS/MS-based NSD2 enzymatic assay (SAH production); assay type: biochemical; details: read-out: NSD2 IC50
In short: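 Full-length NSD2 [1-1365] (8 nM final) with 1 μM SAM and 400 nM mouse-liver nucleosome in Tris pH 8.0 buffer; inhibitor preincubated 20 min with enzyme/SAM before nucleosome addition. Reaction 90 min at room temperature, TFA-quenched; SAH quantified by LC-MS/MS against d4-SAH internal standard and SAH standard curve.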

[1] = system: cellular H3K36me2 level in multiple myeloma cell line KMS11 (t(4;14)+); test: H3K36me2 cellular ELISA assay in KMS11-Par line; assay type: cell-based; details: Homo sapiens, KMS-11, ELISA, read-out: H3K36me2 ELISA in KMS11-Par
In short: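 KMS11 cells were seeded a day ahead at 1,250 per well in Opti-MEM with B-27/N2, then treated with compound for 72 h. Histones were acid-extracted with 0.4M HCl, and H3K36me2 and total H3 were read by chemiluminescent ELISA. Viability was checked with CellTiter-Glo on a parallel plate in maintenance media.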

[2] = system: cellular H3K36me2 level in thyroid carcinoma cell line CGTH-W-1 (NSD2 E1099K); test: H3K36me2 cellular ELISA assay in CGTH-W-1 line; assay type: cell-based; details: Homo sapiens, CGTH-W-1, 72 h, read-out: H3K36me2 ELISA in CGTH-W-1
In short: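 CGTH-W-1 thyroid carcinoma cells (NSD2 E1099K gain-of-function) exposed to compound for 72 hours. Histone-bound plates probed for H3K36me2 and total H3 by chemiluminescent ELISA. Viability checked on a parallel plate with CellTiter-Glo.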

[3] = NSD2 biochemical activity, class symbols
[4] = KMS11-Par line (t(4;14)+), 72 hours treatment

Chain of NSD2 [1-1365] (O96028 whole entry): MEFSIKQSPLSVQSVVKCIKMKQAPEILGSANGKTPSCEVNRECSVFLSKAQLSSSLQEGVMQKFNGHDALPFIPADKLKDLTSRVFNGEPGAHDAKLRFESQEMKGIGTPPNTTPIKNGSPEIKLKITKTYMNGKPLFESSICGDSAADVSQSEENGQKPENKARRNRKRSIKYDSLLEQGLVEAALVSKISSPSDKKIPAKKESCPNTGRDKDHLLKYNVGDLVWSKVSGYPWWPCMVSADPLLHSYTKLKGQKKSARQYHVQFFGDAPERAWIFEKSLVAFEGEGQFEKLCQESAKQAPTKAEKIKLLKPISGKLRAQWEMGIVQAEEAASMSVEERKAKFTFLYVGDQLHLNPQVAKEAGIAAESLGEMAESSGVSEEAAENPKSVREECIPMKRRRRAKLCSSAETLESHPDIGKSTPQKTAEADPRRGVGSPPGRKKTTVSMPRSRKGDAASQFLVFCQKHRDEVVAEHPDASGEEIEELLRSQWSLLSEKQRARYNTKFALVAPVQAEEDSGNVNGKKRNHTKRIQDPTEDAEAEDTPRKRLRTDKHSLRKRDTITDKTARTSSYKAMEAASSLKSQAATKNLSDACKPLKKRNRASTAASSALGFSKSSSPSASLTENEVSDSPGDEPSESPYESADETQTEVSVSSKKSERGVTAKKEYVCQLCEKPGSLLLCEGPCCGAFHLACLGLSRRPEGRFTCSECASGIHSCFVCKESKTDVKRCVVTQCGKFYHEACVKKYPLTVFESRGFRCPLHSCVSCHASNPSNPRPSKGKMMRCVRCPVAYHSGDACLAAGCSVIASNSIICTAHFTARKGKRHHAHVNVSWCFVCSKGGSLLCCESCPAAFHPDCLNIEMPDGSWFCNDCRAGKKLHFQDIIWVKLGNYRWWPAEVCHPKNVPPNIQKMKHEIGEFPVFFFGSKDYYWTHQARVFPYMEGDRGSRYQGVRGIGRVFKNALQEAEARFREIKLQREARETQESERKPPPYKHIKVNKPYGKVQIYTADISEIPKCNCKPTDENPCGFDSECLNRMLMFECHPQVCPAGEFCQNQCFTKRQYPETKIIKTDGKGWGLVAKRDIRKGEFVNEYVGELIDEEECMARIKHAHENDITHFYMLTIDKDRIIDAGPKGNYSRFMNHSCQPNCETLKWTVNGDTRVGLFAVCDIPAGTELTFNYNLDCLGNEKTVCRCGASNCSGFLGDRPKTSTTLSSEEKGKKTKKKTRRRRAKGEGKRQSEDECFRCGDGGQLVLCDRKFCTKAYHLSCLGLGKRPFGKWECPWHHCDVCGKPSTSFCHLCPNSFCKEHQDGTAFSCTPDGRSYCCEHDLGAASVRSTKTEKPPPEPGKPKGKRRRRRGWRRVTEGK

## Nc1ncnc2c1ncn2Cc1cc(-c2ccc(F)cc2C(F)F)ncc1N1CCC[C@](N)([C@@H](O)C(F)F)C1 [Example 158, (R)-1-((R)-3-amino-1-(4-((6-amino-9H-purin-9-yl)methyl)-6-(2-(difluoromethyl)-4-fluorophenyl)pyridin-3-yl)piperidin-3-yl)-2,2-difluoroethan-1-ol]
NSD2 [1-1365]; [3]
  pIC50: 8.00 to 9.00
[1]; [4]
  pIC50: 6.10
[2]
  pIC50: 7.00

## Nc1ncnc2c1ncn2Cc1cc(-c2ccc(F)cc2F)ncc1N1CCC[C@](N)(c2cccc(Cl)n2)C1 [Example 238, (R)-9-((5-(3-amino-3-(6-chloropyridin-2-yl)piperidin-1-yl)-2-(2,4-difluorophenyl)pyridin-4-yl)methyl)-9H-purin-6-amine]
NSD2 [1-1365]
  pIC50: 8.00 to 9.00
[1]; KMS11-Par line, 72 hours
  pIC50: 5.87
[2]
  pIC50: 6.23

## Nc1ncnc2c1ncn2Cc1cc(-c2ccc(F)cc2)ncc1N1CCCC(N)(c2ccc(F)c(CF)n2)C1 (stereo not drawn) [Example 193, 9-((5-(3-amino-3-(5-fluoro-6-(fluoromethyl)pyridin-2-yl)piperidin-1-yl)-2-(4-fluorophenyl)pyridin-4-yl)methyl)-9H-purin-6-amine]
NSD2 [1-1365]
  pIC50: 6.00 to 8.00
[1]; KMS11-Par line, 72 hours
  pIC50: 5.73
[2]
  pIC50: 6.06

## Nc1ncnc2c1ncn2Cc1cc(-c2ccc(OC(F)F)cc2F)ncc1N1CCC[C@](N)([C@H](O)C(F)F)C1 [Example 153, (S)-1-((R)-3-amino-1-(4-((6-amino-9H-purin-9-yl)methyl)-6-(4-(difluoromethoxy)-2-fluorophenyl)pyridin-3-yl)piperidin-3-yl)-2,2-difluoroethan-1-ol]
NSD2 [1-1365]; [3]
  pIC50: 6.00 to 8.00
[1]; [4]
  pIC50: 5.29
[2]
  pIC50: 6.66

## Cn1ccc(C[C@@]2(N)CCCN(c3cnc(-c4ccc(F)c(F)c4)cc3Cn3cnc4c(N)ncnc43)C2)n1 [Example 56, (S)-9-((5-(3-amino-3-((1-methyl-1H-pyrazol-3-yl)methyl)piperidin-1-yl)-2-(3,4-difluorophenyl)pyridin-4-yl)methyl)-9H-purin-6-amine]
NSD2 [1-1365]; [3]
  pIC50: 8.00 to 9.00
[1]; [4]
  pIC50: 6.63
[2]
  pIC50: 6.56

## Nc1ncnc2c1ncn2Cc1cc(-c2cc(F)c(F)cc2F)ncc1N1CCC[C@](N)([C@@H]2COCCO2)C1 [Example 290, 9-((5-((R)-3-amino-3-((R)-1,4-dioxan-2-yl)piperidin-1-yl)-2-(2,4,5-trifluorophenyl)pyridin-4-yl)methyl)-9H-purin-6-amine]
NSD2 [1-1365]
  pIC50: 6.00 to 8.00
[1]; KMS11-Par line, 72 hours
  pIC50: 6.02
[2]
  pIC50: 6.38

## COC1CCC(C(=O)C2(N)CCCN(c3cnc(-c4ccc(F)c(F)c4)cc3Cn3cnc4c(N)ncnc43)C2)C1 (stereo not drawn) [Example 106, (3-amino-1-(4-((6-amino-9H-purin-9-yl)methyl)-6-(3,4-difluorophenyl)pyridin-3-yl)piperidin-3-yl)(3-methoxycyclopentyl)methanone]
NSD2 [1-1365]; [3]
  pIC50: 6.00 to 8.00
[1]; [4]
  pIC50: 5.84
[2]
  pIC50: 6.30

## COc1ccc(-c2cc(Cn3cnc4c(N)ncnc43)c(N3CCC[C@](N)(C(F)F)C3)cn2)cc1F [Example 305, (R)-9-((5-(3-amino-3-(difluoromethyl)piperidin-1-yl)-2-(3-fluoro-4-methoxyphenyl)pyridin-4-yl)methyl)-9H-purin-6-amine]
NSD2 [1-1365]
  pIC50: 6.00 to 8.00
[1]; KMS11-Par line, 72 hours
  pIC50: 5.32
[2]
  pIC50: 5.47

## CCc1nccc([C@@]2(N)CCCN(c3cnc(-c4ccc(F)c(F)c4)cc3Cn3cnc4c(N)ncnc43)C2)n1 [Example 251, (R)-9-((5-(3-amino-3-(2-ethylpyrimidin-4-yl)piperidin-1-yl)-2-(3,4-difluorophenyl)pyridin-4-yl)methyl)-9H-purin-6-amine]
NSD2 [1-1365]
  pIC50: 6.00 to 8.00
[1]; KMS11-Par line, 72 hours
  pIC50: 5.82
[2]
  pIC50: 6.36

## Nc1ncnc2c1ncn2Cc1cc(-c2cnc(O)c(F)c2)ncc1N1CCCC(N)(c2cccc(Cl)n2)C1 (stereo not drawn) [Example 244, 5-(3-amino-3-(6-chloropyridin-2-yl)piperidin-1-yl)-4-((6-amino-9H-purin-9-yl)methyl)-5′-fluoro-[2,3′-bipyridin]-6′-ol]
NSD2 [1-1365]
  pIC50: 6.00 to 8.00
[1]; KMS11-Par line, 72 hours
  pIC50: 4.48
[2]
  pIC50: 4.90
